26 molecules from patent US20230012368A1 (Hoffmann-La Roche Inc., priority 2018, published 2023) can be followed below.

Where a name gives a salt, the structure may show the parent alone.

The subject of the first assay is Acinetobacter baumannii ATCC 17978. The assay is described as follows: Antimicrobial susceptibility testing: 90% growth inhibitory concentration (IC90) determination. It counts as cell-based. Particulars: 90% growth inhibitory concentration; Acinetobacter baumannii ATCC17978; Iso-Sensitest broth, OD 600 nm over 16h; read-out: ATCC17978 IC90. A digest of the protocol: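 Growth of the Acinetobacter baumannii strain was followed by optical density at 600 nm every 20 minutes for 16h at 35±2° C. Inoculum was ~5×10^(5) CFU/ml in Iso-Sensitest medium, with twofold compound dilutions (e.g. 50 to 0.097 μM final). The 90% inhibitory concentration was derived in log-phase growth.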
`CCc1cc(Nc2nccn3c(-c4ccc(Oc5ncccn5)c(F)c4F)cnc23)ccc1C(=O)NCCNC(=O)[C@H](N)CCCNC(=N)N` [Example 437, N-[2-[[(2R)-2-amino-5-guanidino-pentanoyl]amino]ethyl]-4-[[3-(2,3-difluoro-4-pyrimidin-2-yloxy-phenyl)imidazo[1,2-a]pyrazin-8-yl]amino]-2-ethyl-benzamide; formic acid]: the 90% effect concentration (IC90) (usually the point of the concentration-response curve where the effect stands at 90%) amounted to 410 nM.

The same assay, now with this note: Acinetobacter baumannii, ATCC17978, 16 h, 90% growth inhibitory concentration; Acinetobacter baumannii ATCC17978; Iso-Sensitest broth, OD 600 nm over 16h; read-out: ATCC17978 IC90.
As to `CCc1cc(Nc2nccn3c(-c4ccc(OC)c(F)c4F)cnc23)ccc1C(=O)NCC(N)CC` (centres unmarked) [Example 523, N-(2-aminobutyl)-4-((3-(2,3-difluoro-4-methoxyphenyl)imidazo[1,2-a]pyrazin-8-yl)amino)-2-ethylbenzamide hydrochloride], the IC90 came out at 250 nM. Same read-out and setting: under `Cc1cc(Nc2nccn3c(-c4ccc(OC(F)F)cc4)cnc23)ccc1C(=O)N(C)CCC1CCN(S(C)(=O)=O)CC1` [Example 234, 4-[[3-[4-(difluoromethoxy)phenyl]im-idazo[1,2-a]pyrazin-8-yl]amino]-N,2-dimethyl-N-[2-(1-methylsulfonylpiperidin-4-yl)ethyl]benzamide] stands 1300 nM; under `CCc1cc(Nc2nccn3c(-c4ccc(Oc5ccccn5)c(F)c4F)cnc23)ccc1C(=O)NC` [Example 472, 4-[[3-[2,3-difluoro-4-(2-pyridyloxy)phenyl]imidazo [1,2-a]pyrazin-8-yl]amino]-2-ethyl-N-methyl-benzamide], 210 nM; under `CCc1cc(Nc2nccn3c(-c4ccc(OC)c(F)c4F)cnc23)ccc1C(=O)NCCNC(=O)[C@@H](N)CCCCN` [Example 398, N-[2-[[(2S)-2,6-diaminohexanoyl]amino]eth-yl]-4-[[3-(2,3-difluoro-4-methoxy-phenyl)imidazo[1,2-a]pyrazin-8-yl]amino]-2-ethyl-benzamide; formic acid], 410 nM.

As for `COc1ccc(-c2cnc3c(Nc4ccc(C(=O)NCC5CCCOC5)c(C)c4)nccn23)cc1F` (centres unmarked) [Example 72, 4-((3-(3-fluoro-4-methoxyphenyl)imidazo [1,2-a]pyrazin-8-yl)amino)-2-methyl-N-((tetrahydro-2H-pyran-3-yl)methyl)benzamide], the IC90 amounted to 1000 nM. Still for that read-out and setting: the same measure for `Cc1cc(Nc2nccn3c(-c4ccc(OC(F)F)cc4)cnc23)ccc1C(=O)N(C)CCN1C[C@@H](C)O[C@@H](C)C1` [Example 256, 4-[[3-[4-(difluoromethoxy)phenyl]im-idazo[1,2-a]pyrazin-8-yl]amino]-N,2-dimethyl-N-[2-[rac-(2R,6S)-2,6-dimethylmorpholin-4-yl]ethyl]benzamide]: 1900 nM; for `CCc1cc(Nc2nccn3c(-c4ccc(OC)c(F)c4F)cnc23)ccc1C(=O)N[C@H](C)CCNC(=O)[C@@H](N)CCCNC(=N)N` [Example 375, N-[(2R)-4-[[(2S)-2-amino-5-carbamimidamidopentanoyl]amino]butan-2-yl]-4-[[3-(2,3-difluoro-4-methoxyphenyl)imidazo[1,2-a]pyrazin-8-yl]amino]-2-ethylbenzamide]: 190 nM. Still for that read-out and setting: under `CCc1cc(Nc2nccn3c(-c4ccc(OC(F)F)c(F)c4F)cnc23)ccc1C(=O)NCCNC(=O)CN(C)C` [Example 294, 4-[[3-[4-(difluoromethoxy)-2,3-difluorophenyl]imidazo[1,2-a]pyrazin-8-yl]amino]-N-[2-[[2-(dimethylamino)acetyl]amino]ethyl]-2-ethylbenzamide] stands 140 nM; under `COc1ccc(-c2cnc3c(Nc4ccc(C(=O)NCCN5CCNCC5)c(Cl)c4)nccn23)c(F)c1F` [Example 59, 2-chloro-4-[[3-(2,3-difluoro-4-methoxy-phenyl)imidazo[1,2-a]pyrazin-8-yl]amino]-N-(2-piperazin-1-ylethyl)benzamide], 130 nM; under `CCc1cc(Nc2nccn3c(-c4ccc(OC(F)F)c(F)c4F)cnc23)ccc1C(=O)NCC1CCN(CC2CNC2)CC1` [Example 547, N-((1-(azetidin-3-ylmethyl)piperidin-4-yl)methyl)-4-((3-(4-(difluoromethoxy)-2,3-difluorophenyl)imidazo[1,2-a]pyrazin-8-yl)amino)-2-ethylbenzamide formate], 160 nM. Still for that read-out and setting: under `COc1ccc(-c2cnc3c(Nc4ccc(C(=O)N(C)Cc5cccnc5)c(C)c4)nccn23)cc1F` [Example 38, 4-[[3-(3-fiuoro-4-methoxy-phenyl)imidazo[1,2-a]pyrazin-8-yl]amino]-N,2-dimethyl-N-(3-pyridylmethyl) benzamide] stands 190 nM; under `Cc1cc(Nc2nccn3c(-c4ccc(OC(F)F)cc4)cnc23)ccc1C(=O)N(C)CCCSc1nnnn1C` [Example 178, 4-[[3-[4-(difluoromethoxy)phenyl]im-dazo[1,2-a]pyrazin-8-yl]amino]-N,2-dimethyl-N-[3-(1-methyltetrazol-5-yl)sulfanylpropyl]benzamide], 1000 nM. In the case of `CCc1cc(Nc2nccn3c(-c4ccc(OC)c(F)c4F)cnc23)ccc1C(=O)NCCNC(=O)[C@@H](N)CCCNC1=NCCN1` [Example 128, N-[2-[[(2S)-2-amino-5-(4,5-dihydro-1H-imidazol-2-ylamino)pentanoyl]amino]ethyl]-4-[[3-(2,3-difluoro-4-methoxy-phenyl)imidazo[1,2-a]pyrazin-8-yl]amino]-2-ethyl-benzamide formate], the IC90 was 240 nM. Still for that read-out and setting: under `Cc1cc(Nc2nccn3c(-c4ccc(Cl)c(F)c4F)cnc23)ccc1C(=O)NCCC1CCN(C)CC1` [Example 244, 4-[[3-(4-chloro-2,3-difluorophenyl)imidazo[1,2-a]pyrazin-8-yl]amino]-2-methyl-N-[2-(1-methylpiperidin-4-yl)ethyl]benzamide] stands 440 nM; under `N#CCOc1ccc(-c2cnc3c(Nc4ccc(C(=O)NCCCN5CCNCC5)c(Cl)c4)nccn23)c(F)c1F` [Example 77, 2-chloro-4-((3-(4-(cyanomethoxy)-2,3-difluorophenyl)imidazo [1,2-a]pyrazin-8-yl)amino)-N-(3-(piperazin-1-yl)propyl)benzamide], 100 nM. Consider `CCc1cc(Nc2nccn3c(-c4ccc(OC)c(F)c4F)cnc23)ccc1C(=O)NC[C@H](C)N` [Example 522, (S)-N-(2-aminopropyl)-4-((3-(2,3-difluoro-4-methoxyphenyl)imidazo[1,2-a]pyrazin-8-yl)amino)-2-ethylbenzamide hydrochloride], for which the concentration for an effect of 90% (IC90) came out at 260 nM. Still for that read-out and setting: the same measure for `CCc1cc(Nc2nccn3c(-c4ccc(OC)c(F)c4F)cnc23)ccc1C(=O)NCCNC(=O)[C@@H](N)CO` [Example 373, N-[2-[[(2S)-2-amino-3-hydroxypropanoyl]amino]eth-yl]-4-[[3-(2,3-difluoro-4-methoxyphenyl)imidazo[1,2-a]pyrazin-8-yl]amino]-2-ethylbenzamide]: 150 nM. Still for that read-out and setting: the same measure for `CCc1cc(Nc2nccn3c(-c4ccc(OC)c(F)c4F)cnc23)ccc1C(=O)NCCNC(=O)[C@@H](N)CCCNC(N)=O` [Example 332, N-[2-[[(2S)-2-amino-5-(carbamoylamino)pentanoyl]amino]ethyl]-4-[[3-(2,3-difluoro-4-methoxyphenyl)imidazo[1,2-a]pyrazin-8-yl]amino]-2-ethylbenzamide]: 320 nM. Take `Cc1cc(Nc2nccn3c(-c4ccc(Cl)cc4)cnc23)ccc1C(=O)NCCCCN` [Example 239, N-(4-aminobutyl)-4-[[3-(4-chlorophenyl)imidazo[1,2-a]pyrazin-8-yl]amino]-2-methylbenzamide; hydrochlo-ride]: the IC90 was 540 nM. Still for that read-out and setting: the same measure for `COc1ccc(-c2cnc3c(Nc4ccc(C(=O)NCCCNC(=O)[C@@H]5C[C@@H](O)CN5)c(C)c4)nccn23)c(F)c1F` [Example 358, (2S,4R)-N-[3-[[4-[[3-(2,3-difluoro-4-methoxyphenyl)imidazo[1,2-a]pyrazin-8-yl]amino]-2-methylbenzoyl]amino]propyl]-4-hydroxypyrrolidine-2-carboxamide]: 50 nM; for `CCc1cc(Nc2nccn3c(-c4ccc(OC)c(F)c4F)cnc23)ccc1C(=O)NCC(=O)NCCN` [Example 430, N-[2-(2-aminoethylamino)-2-oxo-ethyl]-4-[[3-(2,3-difluoro-4-methoxy-phenyl)imidazo[1,2-a]pyrazin-8-yl]amino]-2-ethyl-benzamide; formic acid]: 230 nM. Same read-out and setting: under `CCc1cc(Nc2nccn3c(-c4ccc(Oc5ccc(OC)cn5)c(F)c4F)cnc23)ccc1C(=O)NCCNC(=O)CCN` [Example 448, N-[2-(3-aminopropanoylamino)ethyl]-4-[[3-[2,3-difluoro-4-[(5-methoxy-2-pyridyl)oxy]phenyl]imidazo [1,2-a]pyrazin-8-yl]amino]-2-ethyl-benzamide; formic acid] stands 470 nM; under `COc1ccc(-c2cnc3c(Nc4ccc(C(=O)NC[C@@H](N)CNC(=O)[C@@H]5C[C@@H](O)CN5)c(C)c4)nccn23)c(F)c1F` [Example 468, (2S,4R)-N-[(2R)-2-amino-3-[[4-[[3-(2,3-difluoro-4-methoxy-phenyl)imidazo[1,2-a]pyrazin-8-yl]amino]-2-methyl-benzoyl]amino]propyl]-4-hydroxy-pyrrolidine-2-carboxamide; formic acid], 480 nM. On the same count and under the same terms, the same measure for `CCc1cc(Nc2nccn3c(-c4ccc(OC)c(F)c4F)cnc23)ccc1C(=O)NCC(=O)NCCO` [Example 423, 4-((3-(2,3-difluoro-4-methoxyphenyl)imidazo[1,2-a]pyrazin-8-yl)amino)-2-ethyl-N-(2-((2-hydroxyethyl)amino)-2-oxoethyl)benzamide]: 210 nM; for `Cc1cc(Nc2nccn3c(-c4ccc(OC(F)F)cc4)cnc23)ccc1C(=O)N(C)CC(=O)N1CCN(C)CC1` [Example 170, 4-[[3-[4-(difluoromethoxy)phenyl]im-idazo[1,2-a]pyrazin-8-yl]amino]-N,2-dimethyl-N-[2-(4-methylpiperazin-1-yl)-2-oxoethyl]benzamide]: 1900 nM.
